Assay [1] deals with HL-60. The experiment in a line: Tested for the cytostatic activity as inhibitory concentration against leukemia HL-60 cells. Type of assay: functional, cell-based. The note with it: Homo sapiens.
A further assay concerns Lu-99 cell line. The experiment in a line: Tested for the cytostatic activity as inhibitory concentration against Lu-99 human pulmonary large cell carcinoma. Format: functional, cell-based.
For a further assay, the system named is CCD 19Lu. The experiment in a line: Tested for the cytostatic activity as inhibitory concentration against CCD-19Lu (human normal pulmonary) cells. Type of assay: functional, cell-based.
A further assay deals with FM3A. The experiment in a line: Tested for the cytostatic activity as inhibitory concentration against FM3A mouse mastrocarcinoma cells. Format: functional, cell-based.
For a further assay, the system named is CCRF-CEM. Briefly: Tested for the cytostatic activity as inhibitory concentration against CCRF-CEM human leukemia cells. Type of assay: functional, cell-based.
For the next assay, the system named is RERF-LC-AI. Briefly: Tested for the cytostatic activity as inhibitory concentration against RERF-LC-AI human pulmonary squamous cell carcinoma. Type of assay: functional, cell-based.
A further assay deals with P388/ADM. The experiment in a line: Tested for the cytostatic activity as inhibitory concentration against adriamycin resistant P-388 mouse leukemia cells. Type of assay: functional, cell-based.
The test system of another assay is P388CPT. Briefly: Tested for the cytostatic activity as inhibitory concentration against camptothecin resistant P-388 mouse leukemia cells. Format: functional, cell-based.
The species named for a further assay is Homo sapiens. Briefly: Tested for hemolytic activity in human erythrocytes at 100 ug/ml; Not hemolytic. Type of assay: functional.
A further assay deals with Lu-65. Briefly: Tested for the cytostatic activity as inhibitory concentration against Lu-65 human pulmonary large cell carcinoma. Type of assay: functional, cell-based.
Assay [2] has as its system HL-60. The experiment in a line: Tested in vitro for cytostatic activity against 60-cell line. Type of assay: functional, Homo sapiens.
The test system of a further assay is A549. Briefly: Tested for the cytostatic activity as inhibitory concentration against A-549 human pulmonary adenocarcinoma cells. Format: functional, cell-based.
In another assay the test system is NCI-60 panel. The experiment in a line: Tested in vitro for cytostatic activity against 60-cell line. As to conditions: Homo sapiens.
The next assay relates to Mus musculus. The experiment in a line: Increased life span against mouse P388 leukemic cells after 0.01 mg/kg administration in mice. Format: functional.
The next assay relates to P388. The experiment in a line: Tested for the cytostatic activity as inhibitory concentration against P-388 mouse leukemia cells. Format: functional, cell-based.
Setting [3] is: Homo sapiens, Lu-99, read-out: IC50.
Where [4] appears, read: Homo sapiens, CCD 19Lu, read-out: IC50.
The mark [5] stands for this setting: Homo sapiens, CCRF-CEM, read-out: IC50.
Setting [6] is: Mus musculus, P388, read-out: IC50.

The text below walks through data of ChEMBL document CHEMBL1151493, “Cholestane glycosides with potent cytostatic activities on various tumor cells from Ornithogalum saundersiae bulbs” (Bioorg Med Chem Lett, 1997).

Converted amounts (≈) assume the structure as drawn.

For `COc1ccc(C(=O)O[C@@H]2[C@H](O[C@H]3[C@@H](OC(C)=O)[C@H](O[C@H]4C[C@H]5[C@@H]6CC=C7C[C@@H](O[C@@H]8O[C@@H](CO)[C@@H](O)[C@H](O)[C@@H]8O)CC[C@]7(C)[C@H]6CC[C@]5(C)[C@@]4(O)[C@H](C)C(=O)CCC(C)C)OC[C@@H]3O)OC[C@@H](O)[C@@H]2O)cc1`, half-maximal inhibition in the assay on HL-60 [1] (IC50) required 0.24 nM.

Molecule `CC(=O)O[C@H]1[C@H](O[C@H]2C[C@H]3[C@@H]4CC=C5C[C@@H](O)CC[C@]5(C)[C@H]4CC[C@]3(C)[C@@]2(O)[C@H](C)C(=O)CCC(C)C)OC[C@H](O)[C@H]1O[C@@H]1OC[C@@H](O)[C@H](O)[C@@H]1OC(=O)/C=C/c1ccccc1` gave an IC50 in the assay on HL-60 [1] of 0.29 nM.

`COc1ccc(C(=O)O[C@@H]2[C@H](O[C@H]3[C@@H](OC(C)=O)[C@H](O[C@H]4C[C@H]5[C@@H]6CC=C7C[C@@H](O)CC[C@]7(C)[C@H]6CC[C@]5(C)[C@]4(O)[C@H](C)C(=O)CCC(C)C)OC[C@@H]3O)OC[C@@H](O)[C@@H]2O)cc1OC` returned an IC50 with HL-60 [1] of 0.2 nM.

Take `COc1ccc(C(=O)O[C@@H]2[C@H](O[C@H]3[C@@H](OC(C)=O)[C@H](O[C@H]4C[C@H]5[C@@H]6CC=C7C[C@@H](O)CC[C@]7(C)[C@H]6CC[C@]5(C)[C@@]4(O)[C@H](C)C(=O)CCC(C)C)OC[C@@H]3O)OC[C@@H](O)[C@@H]2O)cc1`: the IC50 with HL-60 [1] was 0.25 nM; with Lu-99 cell line (setting [3]), 0.2 ng/mL (≈ 0.229 nM); with CCD 19Lu (setting [4]), 1500 ng/mL (≈ 1720 nM); in the assay on FM3A, 0.16 ng/mL (≈ 0.183 nM); in the assay with CCRF-CEM (setting [5]), 0.16 ng/mL (≈ 0.183 nM); in the assay with RERF-LC-AI it was 0.26 ng/mL (≈ 0.298 nM). Besides, the IC50 in the assay with P388/ADM came to 0.77 ng/mL (≈ 0.882 nM); with P388CPT, 0.1 ng/mL (≈ 0.115 nM); with Lu-65, 0.2 ng/mL (≈ 0.229 nM); in the assay on A549, 0.68 ng/mL (≈ 0.779 nM); with NCI-60 panel, 0.78 nM; with P388 (setting [6]), 0.13 ng/mL (≈ 0.149 nM). Also, the Activity result in the assay listed under Homo sapiens was “Not hemolytic”. Also, in the assay on HL-60 [2], the IC100 is given as 58 nM. The ILS at 0.01 mg/kg in the assay with Mus musculus was 59%.

`CC(C)CCC(=O)[C@@H](C)[C@@]1(O)[C@@H](O[C@@H]2OC[C@H](O)[C@@H](O[C@@H]3OC[C@@H](O)[C@H](O)[C@@H]3O)[C@H]2O)C[C@H]2[C@@H]3CC=C4C[C@@H](O)CC[C@]4(C)[C@H]3CC[C@@]21C` returned an IC50 in the assay on HL-60 [1] of 190 nM.

In turn, `CC(=O)O[C@H]1[C@H](O[C@H]2C[C@H]3[C@@H]4CC=C5C[C@@H](O[C@@H]6O[C@@H](CO)[C@@H](O)[C@H](O)[C@@H]6O)CC[C@]5(C)[C@H]4CC[C@]3(C)[C@@]2(O)[C@H](C)C(=O)CCC(C)C)OC[C@H](O)[C@H]1O[C@@H]1OC[C@@H](O)[C@H](O)[C@@H]1OC(=O)/C=C/c1ccccc1` showed an IC50 with HL-60 [1] of 0.12 nM.

On to `CC[C@@]1(O)C(=O)OCc2c1cc1n(c2=O)Cc2cc3ccccc3nc2-1` [CAMPTOTHECIN], for which the IC50 in the assay on Lu-99 cell line (setting [3]) turned out to be 1 ng/mL (≈ 2.87 nM); in the assay with CCD 19Lu (setting [4]) it was 2000 ng/mL (≈ 5740 nM); in the assay with CCRF-CEM (setting [5]), 5 ng/mL (≈ 14.4 nM); in the assay on P388 (setting [6]) it was 5 ng/mL (≈ 14.4 nM).

Regarding `COc1cccc2c1C(=O)c1c(O)c3c(c(O)c1C2=O)C[C@@](O)(C(=O)CO)C[C@@H]3O[C@H]1C[C@H](N)[C@H](O)[C@H](C)O1` [DOXORUBICIN], the IC50 stood at 2 ng/mL (≈ 3.68 nM) with Lu-99 cell line (setting [3]), 2000 ng/mL (≈ 3680 nM) with CCD 19Lu (setting [4]), 10 ng/mL (≈ 18.4 nM) with CCRF-CEM (setting [5]) and 3 ng/mL (≈ 5.52 nM) in the assay on P388 (setting [6]).

As for `CO[C@@]12[C@H](COC(N)=O)C3=C(C(=O)C(C)=C(N)C3=O)N1C[C@@H]1N[C@@H]12` [MITOMYCIN], the IC50 is 10 ng/mL (≈ 29.9 nM) in the assay with Lu-99 cell line (setting [3]), 2000 ng/mL (≈ 5980 nM) in the assay with CCD 19Lu (setting [4]), 20 ng/mL (≈ 59.8 nM) in the assay on CCRF-CEM (setting [5]) and 10 ng/mL (≈ 29.9 nM) in the assay on P388 (setting [6]).

`CC(=O)O[C@H]1C(=O)[C@@]2(C)[C@H]([C@H](OC(=O)c3ccccc3)[C@]3(O)C[C@H](OC(=O)[C@H](O)[C@@H](NC(=O)c4ccccc4)c4ccccc4)C(C)=C1C3(C)C)[C@]1(OC(C)=O)CO[C@@H]1C[C@@H]2O` [PACLITAXEL]: the IC50 with Lu-99 cell line (setting [3]) was found to be 2 ng/mL (≈ 2.34 nM); in the assay with CCD 19Lu (setting [4]) it was 2000 ng/mL (≈ 2340 nM); with CCRF-CEM (setting [5]) it was 1 ng/mL (≈ 1.17 nM); in the assay on P388 (setting [6]) it was 10 ng/mL (≈ 11.7 nM).

For the molecule CISPLATIN, the IC50 with Lu-99 cell line (lu-99) stood at 1 ng/mL; in the assay on CCD 19Lu (ccd 19lu) it was 10000 ng/mL; in the assay on CCRF-CEM (ccrf-cem) it was 5 ng/mL; in the assay with P388 (p388), 50 ng/mL.
